Experimental data as given in US6710049B2, “Azole compounds as anti-fungal agents” (Ranbaxy Laboratories Limited, priority 2000, dated 2004).
≈ marks a conversion by molar mass, not a printed value. Where two headings read alike, the source gives them in different places.

Tests used:
P variotii 22319 = assay: MFC determination (subculture on Sabouraud Dextrose Agar); type: cell-based, Paecillomyces variotii
Description: (§1) The in-vitro evaluation of the antifungal activity of the compounds can be performed by determining the minimum inhibitory concentration (MIC) as shown in Table 1 which is the concentration of the test compound in Rosewell Park Memorial Institute (RPMI) 1640 liquid medium buffered with 3-(Morpholino)propanesulphonic acid (MOPS) to pH 7, at which there is significant inhibition of the particular fungi. In practice the National Committee for Clinical Laboratory Standard (NCCLS) M27A document for Candida and Cryptococcus and M38P for Aspergillus was used to determine the MIC against yeast and filamentous fungi with suitable modifications for dermatophytes to other filamentous fungi. Three quality control strains were included each time the MIC were determined and readings recorded only when the Quality Control results fell into the acceptable range. After MIC results had been recorded, 100 μl from each of the well showing no growth was spread over Sabouraud Dextrose Agar (SDA) to determine the minimum fungicidal concentration (MFC) as shown in Table 2.

[1] = molecular target: lanosterol 14α-de-methylase; conditions: the target enzyme in the fungus; cited from earlier work
Aspergillus species = conditions: isolates of Aspergillus species; cited from earlier work
H capsulatum = assay: MIC determination (NCCLS broth method); type: cell-based
In short: (§2)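 Broth microdilution per NCCLS M27A (yeasts) and M38P (Aspergillus), modified for dermatophytes and other filamentous fungi; RPMI 1640 buffered with MOPS to pH 7. MIC is the lowest concentration giving significant growth inhibition. Wells showing no growth are subcultured onto Sabouraud Dextrose Agar to give the MFC.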

Fusarium 1050 = assay: MIC determination (NCCLS broth method); type: cell-based
In short: as §2

Fusarium 1827C = assay: MIC determination (NCCLS broth method); type: cell-based
In short: as §2

Penicillium 191 = assay: MIC determination (NCCLS broth method); type: cell-based
In short: as §2

C glabrata 90030 = assay: MIC determination (NCCLS broth method); type: cell-based
In short: as §2

Rhizopus 1052 = assay: MIC determination (NCCLS broth method); type: cell-based
In short: as §2

A niger P1 - 1046 = assay: MIC determination (NCCLS broth method); type: cell-based
In short: as §2

A flavus E2 - 1043 = assay: MIC determination (NCCLS broth method); type: cell-based
In short: as §2

Alternaria 1051 = assay: MIC determination (NCCLS broth method); type: cell-based
In short: as §2

Penicillium I - 1049 = assay: MIC determination (NCCLS broth method); type: cell-based
In short: as §2

A flavus E3 - 1044 = assay: MIC determination (NCCLS broth method); type: cell-based
In short: as §2

A flavus P2 - 1045 = assay: MIC determination (NCCLS broth method); type: cell-based
In short: as §2

C krusei 6258 = assay: MIC determination (NCCLS broth method); type: cell-based
In short: as §2

C parapsilosis 22019 = assay: MIC determination (NCCLS broth method); type: cell-based
In short: as §2

Penicillium 3162 = assay: MIC determination (NCCLS broth method); type: cell-based
In short: as §2

Penicillium 2548 = assay: MIC determination (NCCLS broth method); type: cell-based
In short: as §2

A flavus E4 - 1042 = assay: MIC determination (NCCLS broth method); type: cell-based
In short: as §2

A niger E5 - 1047 = assay: MIC determination (NCCLS broth method); type: cell-based
In short: as §2

Mucor (Ceylon) = assay: MIC determination (NCCLS broth method); type: cell-based
In short: as §2

Rhizoupus spp. isolates = assay: Comparative in vitro MIC, isolate panel; type: cell-based
Description: as §1
(§3) A comparative in vitro and in vivo biologically activity data of the compound of our invention, 2-{[1R,2R]-2-(2,4-Difluorophenyl)-2-hydroxy-1-methyl-3-(1H-1,2,4-triazole-1-yl)propyl}-4-[(2′,2′,3′,3′-tetrafluoropropoxyphenyl)-3-(2H,4H)-1,2,4-thiotriazolone (Compound No. 3) with 2-[(1R,2R)-2-(2,4-difluorophenyl)-2-hydroxy-1-methyl-3-(1H-1,2,4-triazol-1-yl)propyl]-4-(2′,2′,3′,3′-tetraflouropropoxyphenyl)-3(2H,4H)-1,2,4-triazolone (TAK 187) and standard antifungal pharmaceuticals is given below: […]

All Filamentous isolates = assay: Comparative in vitro MIC, isolate panel; type: cell-based
Description: as §1, §3

All fungal pathogens = assay: Comparative in vitro MIC, isolate panel; type: cell-based
Description: as §1, §3

Fusarium spp. isolates = assay: Comparative in vitro MIC, isolate panel; type: cell-based
Description: as §1, §3

[2] = system: Penicillium spp. isolates; assay: Comparative in vitro MIC, isolate panel; type: cell-based
Description: as §1, §3

All Candida isolates = assay: Comparative in vitro MIC, isolate panel; type: cell-based
Description: as §1, §3

[3] = system: Aspergillus fumigatus isolates; assay: Comparative in vitro MIC, isolate panel; type: cell-based
Description: as §1, §3

T. mentagrophyte = assay: Activity against dermatophytes; type: cell-based; parameters: unit not given here
Description: as §1, §3

T. rubrum = assay: Activity against dermatophytes; type: cell-based; parameters: unit not given here
Description: as §1, §3

Aspergillus fumigatous = assay: In vivo anti-fungal activity, ED50 in systemically infected mice; parameters: species or system Swiss albino mice; conditions: mice infected i.v. with Aspergillus fumigatous, dosing for five days
Procedure: The in-vivo evaluation of the compound can be carried out at a series of dose levels by oral or I. V. injection to mice which are inoculated I.V. with the minimum lethal dose of Candida albicans, Cryptococcus neoformans or Aspergillus fumigatus by the tail vein. Activity is based on the survival of a treated group of mice after the death of an untreated group of mice. For Aspergillus and Cryptococcus infections, target organs were cultured after treatment to document the number of mice cured of the infection for further assessment of activity.
Method: Briefly, Swiss albino mice weighing 20±2 G were injected intravenously (tail vein) with sufficient fungal cells to kill 100% of the untreated animals for Aspergillus fumigatous strain used. In all cases each group comprised of six mice. Five does levels, utilizing doubling dilution range, were employed per determination ranging from 25 to 1.56 mg/kg BW. Dosing was carried out for five days starting after 30 minutes of infection. […] Treated animals were monitored twice daily for 14 days post infection at which time the experiment was terminated and ED50 was calculated.

[4] = read-out: Minimum Inhibitory Concentration (MIC)

OC(Cn1cncn1)(Cn1cncn1)c1ccc(F)cc1F [Fluconazole]
MFC (P variotii 22319; read-out: Minimum Fungicidal Concentration (MFC)): > 128 µg/mL
IC50 [1]: 4.8 µM
minimum inhibitory concentration (MIC) values (Aspergillus species): 400 µg/mL (≈ 1310 µM)
MIC (H capsulatum; [4]): 4 µg/mL (≈ 13.1 µM)
MIC (Fusarium 1050; [4]): > 128 µg/mL
MIC (Fusarium 1827C; [4]): > 128 µg/mL
MIC (Penicillium 191; [4]): 64 µg/mL (≈ 209 µM)
MIC (C glabrata 90030; [4]): 4 µg/mL (≈ 13.1 µM)
MIC (Rhizopus 1052; [4]): > 128 µg/mL
MIC (A niger P1 - 1046; [4]): 128 µg/mL (≈ 418 µM)
MIC (A flavus E2 - 1043; [4]): > 128 µg/mL
MIC (Alternaria 1051; [4]): > 128 µg/mL
MIC (Penicillium I - 1049; I1049, read-out: Minimum Inhibitory Concentration (MIC)): > 128 µg/mL
MIC (A flavus E3 - 1044; [4]): > 128 µg/mL
MIC (A flavus P2 - 1045; [4]): > 128 µg/mL
MIC (C krusei 6258; [4]): 32 µg/mL (≈ 104 µM)
MIC (C parapsilosis 22019; [4]): 2 µg/mL (≈ 6.53 µM)
MIC (Penicillium 3162; [4]): > 128 µg/mL
MIC (Penicillium 2548; [4]): 128 µg/mL (≈ 418 µM)
MIC (A flavus E4 - 1042; [4]): > 128 µg/mL
MIC (A niger E5 - 1047; [4]): > 128 µg/mL
MIC (Mucor (Ceylon); [4]): > 128 µg/mL
MIC (Rhizoupus spp. isolates): 256 µg/mL (≈ 836 µM)
MIC50 (Rhizoupus spp. isolates; read-out: MIC50): 256 µg/mL (≈ 836 µM)
MIC90 (Rhizoupus spp. isolates; read-out: MIC90): 256 µg/mL (≈ 836 µM)
MIC (All Filamentous isolates): 199 µg/mL (≈ 650 µM)
MIC (All fungal pathogens): 105 µg/mL (≈ 343 µM)
MIC (Fusarium spp. isolates): 256 µg/mL (≈ 836 µM)
MIC50 (Fusarium spp. isolates; read-out: MIC50): 256 µg/mL (≈ 836 µM)
MIC90 (Fusarium spp. isolates; read-out: MIC90): 256 µg/mL (≈ 836 µM)
MIC [2]: 174 µg/mL (≈ 569 µM)
MIC50 ([2]; read-out: MIC50): 256 µg/mL (≈ 836 µM)
MIC90 ([2]; read-out: MIC90): 256 µg/mL (≈ 836 µM)
MIC (All Candida isolates): 5.3 µg/mL (≈ 17.3 µM)
MIC50 (All Candida isolates; read-out: MIC50): 8 µg/mL (≈ 26.1 µM)
MIC90 (All Candida isolates; read-out: MIC90): 128 µg/mL (≈ 418 µM)
MIC [3]: 256 µg/mL (≈ 836 µM)
MIC50 ([3]; read-out: MIC50): 256 µg/mL (≈ 836 µM)
MIC90 ([3]; read-out: MIC90): 256 µg/mL (≈ 836 µM)
Activity against dermatophytes (T. mentagrophyte): >128
Activity against dermatophytes (T. rubrum): >128

C[C@@H](n1ncn(-c2ccc(OCC(F)(F)C(F)F)cc2)c1=O)[C@](O)(Cn1cncn1)c1ccc(F)cc1F [TAK 187, 2-[(1R,2R)-2-(2,4-difluorophenyl)-2-hydroxy-1-methyl-3-(1H-1,2,4-triazol-1-yl)propyl]-4-(2′,2′,3′,3′-tetraflouropropoxyphenyl)-3(2H,4H)-1,2,4-triazolone]
Minimum Fungicidal Concentration (MFC) (P variotii 22319): 32 µg/mL
Minimum Inhibitory Concentration (MIC) (H capsulatum): 0.25 µg/mL
Minimum Inhibitory Concentration (MIC) (Fusarium 1050): 64 µg/mL
Minimum Inhibitory Concentration (MIC) (Fusarium 1827C): 32 µg/mL
Minimum Inhibitory Concentration (MIC) (Penicillium 191): 16 µg/mL
Minimum Inhibitory Concentration (MIC) (C glabrata 90030): 0.5 µg/mL
Minimum Inhibitory Concentration (MIC) (Rhizopus 1052): 8 µg/mL
Minimum Inhibitory Concentration (MIC) (A niger P1 - 1046): 0.5 µg/mL
Minimum Inhibitory Concentration (MIC) (A flavus E2 - 1043): 4 µg/mL
Minimum Inhibitory Concentration (MIC) (Alternaria 1051): 1 µg/mL
Minimum Inhibitory Concentration (MIC) (Penicillium I - 1049): 16 µg/mL
Minimum Inhibitory Concentration (MIC) (A flavus E3 - 1044): 1 µg/mL
Minimum Inhibitory Concentration (MIC) (A flavus P2 - 1045): 4 µg/mL
Minimum Inhibitory Concentration (MIC) (C krusei 6258): 2 µg/mL
Minimum Inhibitory Concentration (MIC) (C parapsilosis 22019): 0.03 µg/mL
Minimum Inhibitory Concentration (MIC) (Penicillium 3162): 32 µg/mL
Minimum Inhibitory Concentration (MIC) (Penicillium 2548): 16 µg/mL
Minimum Inhibitory Concentration (MIC) (A flavus E4 - 1042): 4 µg/mL
Minimum Inhibitory Concentration (MIC) (A niger E5 - 1047): 2 µg/mL
Minimum Inhibitory Concentration (MIC) (Mucor (Ceylon)): 8 µg/mL
ED50 (Aspergillus fumigatous; Day 7 post infection): 10.08 mg/kg body weight
ED50 (Aspergillus fumigatous; Day 14 post infection): 20.39 mg/kg body weight
MIC50 (Rhizoupus spp. isolates): 4 µg/mL (≈ 7.37 µM)
MIC90 (Rhizoupus spp. isolates): 4 µg/mL (≈ 7.37 µM)
MIC G.M. (Rhizoupus spp. isolates): 4 µg/mL (≈ 7.37 µM)
MIC50 (All Filamentous isolates): 8 µg/mL (≈ 14.7 µM)
MIC90 (All Filamentous isolates): 32 µg/mL (≈ 59 µM)
MIC G.M. (All Filamentous isolates): 7.246 µg/mL (≈ 13.4 µM)
MIC50 (All fungal pathogens): 8 µg/mL (≈ 14.7 µM)
MIC90 (All fungal pathogens): 32 µg/mL (≈ 59 µM)
MIC G.M. (All fungal pathogens): 4.16 µg/mL (≈ 7.67 µM)
MIC50 (Fusarium spp. isolates): 32 µg/mL (≈ 59 µM)
MIC90 (Fusarium spp. isolates): 64 µg/mL (≈ 118 µM)
MIC G.M. (Fusarium spp. isolates): 45.255 µg/mL (≈ 83.4 µM)
MIC50 [2]: 16 µg/mL (≈ 29.5 µM)
MIC90 [2]: 64 µg/mL (≈ 118 µM)
MIC G.M. [2]: 18.664 µg/mL (≈ 34.4 µM)
MIC50 (All Candida isolates): 0.5 µg/mL (≈ 0.922 µM)
MIC90 (All Candida isolates): 2 µg/mL (≈ 3.69 µM)
MIC G.M. (All Candida isolates): 0.45 µg/mL (≈ 0.83 µM)
MIC50 [3]: 8 µg/mL (≈ 14.7 µM)
MIC90 [3]: 8 µg/mL (≈ 14.7 µM)
MIC G.M. [3]: 7.4 µg/mL (≈ 13.6 µM)
